Results as given in patent publication US7507727B2, “Substituted quinobenzoxazine analogs and methods of using thereof” (Cylene Pharmaceuticals, Inc., priority 2003, dated 2009).

Target: c-Myc template DNA (c-myc quadruplex)
Experiment: Quadruplex binding / stop assay (Taq polymerase arrest, capillary electrophoresis)
Conditions: read-out: Stop Data c-Myc μM; concentration at which 50% of the DNA was arrested (arrested:full-length 1:1)

Row | Structure (SMILES) | IC50 [µM]
1 | CN1CCN(CCCNc2c(F)cc3c(=O)c(C(=O)NCCC4CCCN4C)cn4c5cc6c(=O)c7ccccc7c(=O)c6cc5oc2c34)CC1 (stereo not drawn) [compound 349] | 0.9
2 | CN1CCN(CCCNC(=O)c2cn3c4cc5c(=O)c6ccccc6c(=O)c5cc4oc4c(NCCCN5CCN(C)CC5)c(F)cc(c2=O)c43)CC1 [compound 350] | 0.9
3 | CN1CCN(c2c(F)cc3c(=O)c(C(=O)NCCC4CCCN4C)cn4c5cc6c(=O)c7ccccc7c(=O)c6cc5oc2c34)CC1 (stereo not drawn) [compound 351] | 0.9
4 | CN1CCN(CCCNC(=O)c2cn3c4cc5c(=O)c6ccccc6c(=O)c5cc4oc4c(N5CCN(C)CC5)c(F)cc(c2=O)c43)CC1 [compound 352] | 0.9
5 | CN(C)CCNC(=O)c1cn2c3cc4c(=O)c5ccccc5c(=O)c4cc3oc3c(N4CCN(C)CC4)c(F)cc(c1=O)c32 [compound 353] | 0.9
6 | CN(C)CCCCNc1c(F)cc2c(=O)c(C(=O)NCCC3CCCN3C)cn3c4cc5c(=O)c6ccccc6c(=O)c5cc4oc1c23 (stereo not drawn) [compound 354] | 0.9
7 | CN1CCC[C@H]1CCNC(=O)c1cn2c3c(c(N4CCC(c5cnccn5)C4)c(F)cc3c1=O)Oc1cc3ccccc3cc1-2 (stereo partly drawn) [compound 355] | 0.89
8 | CN1CCC[C@@H]1CCNC(=O)c1cn2c3c(c(N4CCC(c5cnccn5)C4)c(F)cc3c1=O)Oc1cc3ccccc3cc1-2 (stereo partly drawn) [compound 356] | 0.85
9 | CC1CCCCN1CCCNc1c(F)cc2c(=O)c(C(=O)N3CCOCC3)cn3c2c1Oc1cc2ccccc2cc1-3 (stereo not drawn) [compound 393] | 0.75
10 | CN1CCN(CCCNc2c(F)cc3c(=O)c(C(=O)NCCC4CCCN4C)cn4c3c2Oc2cc3ccccc3cc2-4)CC1 (stereo not drawn) [compound 394] | 0.75
11 | CN1CCN(CCCNc2c(F)cc3c(=O)c(C(=O)NCCN4CCCC4)cn4c3c2Oc2cc3ccccc3cc2-4)CC1 [compound 395] | 0.75
12 | CN(C)CCCCNC(=O)c1cn2c3c(c(NCCCN4CCN(C)CC4)c(F)cc3c1=O)Oc1cc3ccccc3cc1-2 [compound 396] | 0.75
13 | CN(C)CCCCNc1c(F)cc2c(=O)c(C(=O)NCCCN3CCOCC3)cn3c2c1Oc1cc2ccccc2cc1-3 [compound 397] | 0.75
14 | CN1CCN(CCCNc2c(F)cc3c(=O)c(C(=O)O)cn4c3c2Oc2cc3ccccc3cc2-4)CC1 [compound 398] | 0.75
15 | CN1CCN(CCCNC(=O)c2cn3c4c(c(NCCN5CCCC5)c(F)cc4c2=O)Oc2c-3ccc3ccccc23)CC1 [compound 399] | 0.75
16 | CN(C)CCCCNc1c(F)cc2c(=O)c(C(=O)NCCCN3CCOCC3)cn3c2c1Oc1c-3ccc2ccccc12 [compound 400] | 0.75
17 | N[C@@H]1CCN(c2c(F)cc3c(=O)c(C(=O)NCCN4CCCC4)cn4c3c2Oc2c-4ccc3ccccc23)C1 [compound 401] | 0.75
18 | CN1CCCC1CCNC(=O)c1cn2c3c(c(N4CC[C@@H](NC(=O)CCN5CCOCC5)C4)c(F)cc3c1=O)Oc1cc3c(cc1-2)oc1ccccc13 (stereo partly drawn) [compound 402] | 0.75
19 | CN1CCN(CCCNCCC(=O)N[C@@H]2CCN(c3c(F)cc4c(=O)c(C(=O)NCCN5CCCC5)cn5c4c3Oc3cc4c(cc3-5)oc3ccccc34)C2)CC1 [compound 403] | 0.75
20 | O=C(CCN1CCOCC1)N[C@@H]1CCN(c2c(F)cc3c(=O)c(C(=O)NCCN4CCCC4)cn4c3c2Oc2cc3c(cc2-4)oc2ccccc23)C1 [compound 404] | 0.75

Row | Structure (SMILES) | IC50 [µM]
21 | CN(C)CCCCNC(=O)c1cn2c3c(c(N4CC[C@@H](NC(=O)CCNCCN5CCOCC5)C4)c(F)cc3c1=O)Oc1cc3c(cc1-2)oc1ccccc13 [compound 405] | 0.75
22 | CC(=O)N[C@@H]1CCN(c2c(F)cc3c(=O)c(C(=O)NCCC4CCCN4C)cn4c3c2Oc2cc3c(cc2-4)oc2ccccc23)C1 (stereo partly drawn) [compound 406] | 0.75
23 | CN1CCCC1CCNC(=O)c1cn2c3cc4oc5cc([N+](=O)[O-])ccc5[nH]c4cc3oc3c(NCCN4CCOCC4)c(F)cc(c1=O)c32 (stereo not drawn) [compound 407] | 0.75
24 | CN1CCCC1CCNC(=O)c1cn2c3cc4oc5cc([N+](=O)[O-])ccc5[nH]c4cc3oc3c(NCCCN4CCOCC4)c(F)cc(c1=O)c32 (stereo not drawn) [compound 408] | 0.75
25 | CN1CCCC1CCNCC(=O)N[C@@H]1CCN(c2c(F)cc3c(=O)c(C(=O)NCCN4CCCCC4)cn4c3c2Oc2cc3c(cc2-4)oc2ccccc23)C1 (stereo partly drawn) [compound 409] | 0.75
26 | CN1CCCC1CCNCC(=O)N[C@@H]1CCN(c2c(F)cc3c(=O)c(C(=O)NCCC4CCCN4C)cn4c3c2Oc2cc3c(cc2-4)oc2ccccc23)C1 (stereo partly drawn) [compound 410] | 0.75
27 | CN1CCN(C(=O)c2cn3c4c(c(N5CC[C@@H](NC(=O)CNCCC6CCCN6C)C5)c(F)cc4c2=O)Oc2cc4c(cc2-3)oc2ccccc24)CC1 (stereo partly drawn) [compound 411] | 0.75
28 | CN1CCCC1CCNCC(=O)N[C@@H]1CCN(c2c(F)cc3c(=O)c(C(=O)N4CCCC4)cn4c3c2Oc2cc3c(cc2-4)oc2ccccc23)C1 (stereo partly drawn) [compound 412] | 0.75
29 | CN1CCCC1CCNCC(=O)N[C@@H]1CCN(c2c(F)cc3c(=O)c(C(=O)N4CCCCC4)cn4c3c2Oc2cc3c(cc2-4)oc2ccccc23)C1 (stereo partly drawn) [compound 413] | 0.75
30 | CN1CCCC1CCNCC(=O)N[C@@H]1CCN(c2c(F)cc3c(=O)c(C(=O)NCCCn4ccnc4)cn4c3c2Oc2cc3c(cc2-4)oc2ccccc23)C1 (stereo partly drawn) [compound 414] | 0.75
31 | O=C(NCCCN1CCOCC1)c1cn2c3cc4oc5cc([N+](=O)[O-])ccc5[nH]c4cc3oc3c(NCCCN4CCOCC4)c(F)cc(c1=O)c32 [compound 415] | 0.75
32 | CN1CCCC1CCNC(=O)c1cn2c3c(c(N4CC[C@@H](NC(=O)CCNCCCN5CCOCC5)C4)c(F)cc3c1=O)Oc1cc3c(cc1-2)oc1ccccc13 (stereo partly drawn) [compound 416] | 0.75
33 | O=C(NCCN1CCCC1)c1cn2c3cc4c(cc3oc3c(NCCCN5CCOCC5)c(F)cc(c1=O)c32)c(=O)c1ccccc14 [compound 418] | 0.75
34 | O=C(NCCN1CCCC1)c1cn2c3cc4c(cc3oc3c(NCCN5CCOCC5)c(F)cc(c1=O)c32)c(=O)c1ccccc14 [compound 419] | 0.75
35 | CN1CCCC1CCNC(=O)c1cn2c3cc4c(cc3oc3c(NCCCN5CCOCC5)c(F)cc(c1=O)c32)c(=O)c1ccccc14 (stereo not drawn) [compound 420] | 0.75
36 | CN1CCCC1CCNC(=O)c1cn2c3cc4c(cc3oc3c(N5CC[C@H](NC(=O)OC(C)(C)C)C5)c(F)cc(c1=O)c32)c(=O)c1ccccc14 (stereo partly drawn) [compound 421] | 0.75
37 | CN1CCCC1CCNC(=O)c1cn2c3cc4c(cc3oc3c(NCCN5CCOCC5)c(F)cc(c1=O)c32)c(=O)c1ccccc14 (stereo not drawn) [compound 422] | 0.75
38 | CN(C)CCCCNC(=O)c1cn2c3cc4c(cc3oc3c(NCCC5CCCN5C)c(F)cc(c1=O)c32)c(=O)c1ccccc14 (stereo not drawn) [compound 423] | 0.75
39 | O=C(NCCN1CCOCC1)c1cn2c3cc4c(cc3oc3c(NCCN5CCCC5)c(F)cc(c1=O)c32)c(=O)c1ccccc14 [compound 424] | 0.75
40 | O=C(NCCN1CCOCC1)c1cn2c3cc4c(cc3oc3c(NCCCN5CCOCC5)c(F)cc(c1=O)c32)c(=O)c1ccccc14 [compound 425] | 0.75

Row | Structure (SMILES) | IC50 [µM]
41 | CN1CCN(CCCNC(=O)c2cn3c4cc5c(cc4oc4c(NCCC6CCCN6C)c(F)cc(c2=O)c43)c(=O)c2ccccc25)CC1 (stereo not drawn) [compound 426] | 0.75
42 | CN1CCN(CCCNC(=O)c2cn3c4cc5c(cc4oc4c(N6CC[C@H](NC(=O)OC(C)(C)C)C6)c(F)cc(c2=O)c43)c(=O)c2ccccc25)CC1 [compound 427] | 0.75
43 | CC(C)(C)OC(=O)N[C@@H]1CCN(c2c(F)cc3c(=O)c(C(=O)NCCCN)cn4c3c2Oc2cc3ccccc3cc2-4)C1 [compound 428] | 0.75
44 | CC(C)(C)OC(=O)N[C@@H]1CCN(c2c(F)cc3c(=O)c(C(=O)NCCCN=C(N)N)cn4c3c2Oc2cc3ccccc3cc2-4)C1 [compound 429] | 0.75
45 | CNC1CCN(c2c(F)cc3c(=O)c(C(=O)NCCC4CCCN4C)cn4c3c2Oc2cc3ccccc3cc2-4)C1 (stereo not drawn) [compound 430] | 0.75
46 | NC1CCN(c2c(F)cc3c(=O)c(C(=O)NCCCCN4CCCC4)cn4c3c2Oc2cc3ccccc3cc2-4)C1 (stereo not drawn) [compound 431] | 0.75
47 | CN1CCCC1CCNC(=O)c1cn2c3c(c(NCCN4CCCCC4)c(F)cc3c1=O)Oc1cc3ccccc3cc1-2 (stereo not drawn) [compound 432] | 0.75
48 | CN1CCCC1CCNC(=O)c1cn2c3c(c(NC4CCCNC4)c(F)cc3c1=O)Oc1cc3ccccc3cc1-2 (stereo not drawn) [compound 433] | 0.75
49 | CN1CCCC1CCNC(=O)c1cn2c3c(c(N4CCC(N5CCCC5)CC4)c(F)cc3c1=O)Oc1cc3ccccc3cc1-2 (stereo not drawn) [compound 434] | 0.75
50 | CN1CCCC1CCNC(=O)c1cn2c3c(c(NC4CN5CCC4CC5)c(F)cc3c1=O)Oc1cc3ccccc3cc1-2 (stereo not drawn) [compound 435] | 0.75
51 | CCN(CC)CCCC(C)Nc1c(F)cc2c(=O)c(C(=O)NCCC3CCCN3C)cn3c2c1Oc1cc2ccccc2cc1-3 (stereo not drawn) [compound 436] | 0.75
52 | CN(C)CCCNc1c(F)cc2c(=O)c(C(=O)NCCC3CCCN3C)cn3c2c1Oc1cc2ccccc2cc1-3 (stereo not drawn) [compound 437] | 0.75
53 | CC1CCN(CCCNc2c(F)cc3c(=O)c(C(=O)NCCC4CCCN4C)cn4c3c2Oc2cc3ccccc3cc2-4)CC1 (stereo not drawn) [compound 438] | 0.75
54 | CN1CCCC1CCNC(=O)c1cn2c3c(c(N(C)C4CCNC4)c(F)cc3c1=O)Oc1cc3ccccc3cc1-2 (stereo not drawn) [compound 439] | 0.75
55 | CN1CCCC1CCNC(=O)c1cn2c3c(c(NCCCCN4CCCC4)c(F)cc3c1=O)Oc1cc3ccccc3cc1-2 (stereo not drawn) [compound 440] | 0.75
56 | CN1CCCC1CCNC(=O)c1cn2c3c(c(NCC4CCN(C(=O)OC(C)(C)C)C4)c(F)cc3c1=O)Oc1cc3ccccc3cc1-2 (stereo not drawn) [compound 441] | 0.75
57 | CN1CCCC1CCNC(=O)c1cn2c3c(c(N4CCC(c5ccccn5)C4)c(F)cc3c1=O)Oc1cc3ccccc3cc1-2 (stereo not drawn) [compound 442] | 0.75
58 | CN1CCCC1CCNC(=O)c1cn2c3c(c(N4CCC(c5cccnc5)C4)c(F)cc3c1=O)Oc1cc3ccccc3cc1-2 (stereo not drawn) [compound 443] | 0.75
59 | CC1(C)CC(NC(=O)c2cn3c4c(c(N5CCC(N)C5)c(F)cc4c2=O)Oc2cc4ccccc4cc2-3)CC(C)(C)N1 (stereo not drawn) [compound 444] | 0.75
60 | CC1(C)CC(NC(=O)c2cn3c4c(c(N5CCC(N)C5)c(F)cc4c2=O)Oc2cc4ccccc4cc2-3)CC(C)(C)N1 (stereo not drawn) [compound 445] | 0.75
